This assay addresses T1, P2X7 receptor (Homo sapiens, UniProt Q99572).
T1 construct: host or cells: THP-1 cells differentiated with LPS and IFN-γ
T1 sequence (Q99572 1-595): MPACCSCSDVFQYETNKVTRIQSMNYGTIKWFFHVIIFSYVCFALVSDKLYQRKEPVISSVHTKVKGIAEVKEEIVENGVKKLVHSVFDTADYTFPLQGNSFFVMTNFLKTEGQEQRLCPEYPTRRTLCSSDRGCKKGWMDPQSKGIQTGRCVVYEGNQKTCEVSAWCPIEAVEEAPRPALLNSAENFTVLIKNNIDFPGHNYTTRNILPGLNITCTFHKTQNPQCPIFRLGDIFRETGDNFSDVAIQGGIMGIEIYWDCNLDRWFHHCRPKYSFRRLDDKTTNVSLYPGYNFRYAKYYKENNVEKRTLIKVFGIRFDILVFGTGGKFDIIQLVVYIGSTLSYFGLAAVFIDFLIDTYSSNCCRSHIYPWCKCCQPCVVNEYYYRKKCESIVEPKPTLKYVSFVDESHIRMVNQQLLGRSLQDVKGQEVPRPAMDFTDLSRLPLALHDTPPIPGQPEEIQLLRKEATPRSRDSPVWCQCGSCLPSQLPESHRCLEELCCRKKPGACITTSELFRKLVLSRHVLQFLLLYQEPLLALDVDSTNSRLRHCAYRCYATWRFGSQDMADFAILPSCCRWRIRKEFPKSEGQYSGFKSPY
Kind of assay: IL-1β release assay in differentiated THP-1 cells stimulated with BzATP (Example 9). Particulars: for inhibition at 0.3 µM: 0.3 μM compound, read-out: IL-1β % Inhib. @ 0.3 μM; for inhibition at 0.3 µM / inhibition at 0.1 µM: differentiated THP-1 cells, BzATP 250 uM; for IC50: THP-1 cells, BzATP-stimulated IL-1β release, four parameter logistic fit; for inhibition: THP-1, read-out: IL-1β % Inhib.; for inhibition at 0.1 µM: 0.1 μM compound. It is filed as cell-based. On the set-up: inhibition: dose or concentration left out as unconfirmed. Summed up:
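IC50 derived by four-parameter logistic fit of percent inhibition of IL-1β release, measured by ELISA after 45 min stimulation with 250 uM BzATP. Cells: THP-1 differentiated 16 h with 100 ng/mL LPS plus IFN-γ, LPS-primed 2 h, compound added 30 min beforehand.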

Setting [1] is: "*" class symbols, read-out: IL-1β % Inhib. ("*" symbols: at 0.1 μM).

Read-outs that look alike come from different tables or passages of the source.

This passage reports inhibition and IC50 results from patent US8546579B2, “Bicycloheteroaryl compounds as P2X7 modulators and uses thereof” (Evotec (US) Inc., priority 2006, dated 2013).

In the case of `O=C(Nc1cccc2c(=O)n(CC3CCOCC3)ccc12)c1cccc2c1OCCO2` [Compound 1117], the inhibition at 0.3 µM ('+' class symbols) lay in the range of 0 to 25%.
The same measure, in the same setting: in the case of `Cc1cc(C)c(CC(=O)Nc2cccc3c(=O)n(CCN(C)C)ccc23)c(C)c1` [Compound 1036] it was 0 to 25%.
`CO[C@@](C(=O)Nc1cccc2c(=O)n(CCN(C)C)ccc12)(c1ccccc1)C(F)(F)F` [Compound 1615] registered an IC50 greater than 1000 nM. In addition, the inhibition at 0.3 µM ("+" class symbols) fell in the range of 0 to 25%.
On to `O=C(Nc1cccc2c(=O)n(CCN3CCOCC3)ccc12)c1ccc2ccccc2c1` [Compound 1411], for which the inhibition fell in the range of 0 to 25%.
The same measure, in the same setting: the value for `O=C(Nc1cccc2c(=O)n(Cc3ccc(OC(F)(F)F)cc3)ccc12)c1ccccc1Cl` [Compound 1560] was 0 to 25%.
`CC(C)(C)Cn1ccc2c(NC(=O)c3ccccc3Cl)cccc2c1=O` [Compound 1244]: for the setting “symbols + to ++++”, the inhibition at 0.3 µM was 0 to 25%.
In turn, `CN(C)CCn1ccc2c(NC(=O)C3(c4ccc(Cl)cc4)CCCC3)cccc2c1=O` [Compound 1614] registered a half-maximal inhibitory concentration (IC50) greater than 1000 nM. Also, the inhibition at 0.3 µM ("+" class symbols) was 0 to 25%.
Turning to `COCCn1ccc2c(NC(=O)c3ccc4c(c3)OCCCO4)cccc2c1=O` [Compound 1328], the inhibition at 0.3 µM (symbols + to ++++) is 0 to 25%.
As for `Cc1ccc(C)c(CC(=O)Nc2cccc3c(=O)n(Cc4cccnc4)ccc23)c1` [Compound 1077], the inhibition at 0.3 µM ('+' class symbols) fell in the range of 0 to 25%.
On to `CN(C)CCn1ccc2c(NC(=O)CC3CCCCCC3)cccc2c1=O` [Compound 1389], for which the IC50 was 311 nM. The inhibition at 0.3 µM (symbols + to ++++) was 26 to 50%.
Take `COc1cccc(CC(=O)Nc2cccc3c(=O)n(C)ccc23)c1` [Compound 1297]: the inhibition at 0.3 µM (symbols + to ++++) lay in the range of 26 to 50%.
`O=C(CCc1cccc(Cl)c1)Nc1cccc2c(=O)n(Cc3ccc(OC(F)(F)F)cc3)ccc12` [Compound 1610]: the inhibition at 0.1 µM under setting [1] is 0 to 25%.
As for `Cc1ccc(C)c(CC(=O)Nc2cccc3c(=O)n(CCN4CCOCC4)ccc23)c1` [Compound 1042], where the note is “'+' class symbols”, the inhibition at 0.3 µM was 0 to 25%.
`COc1cc(OC)cc(C(=O)Nc2cccc3c(=O)n(CC4CCN(C)CC4)ccc23)c1` [Compound 1464]: the inhibition lay within 0 to 25%.
Take `CC(C)(C)Cn1ccc2c(NC(=O)c3cccc4c3OCCO4)cccc2c1=O` [Compound 1272]: for the setting “symbols + to ++++”, the inhibition at 0.3 µM lay within 0 to 25%.
`CN1CCC(Cn2ccc3c(NC(=O)CCCc4ccccc4)cccc3c2=O)CC1` [Compound 1475]: the inhibition lay in the range of 0 to 25%.
Still for that read-out and setting: in the case of `Cc1ccc(C)c(CC(=O)Nc2cccc3c(=O)n(CCN(C)C)ccc23)c1` [Compound 1401] it was 0 to 25%.
`O=C(CCc1ccc(Cl)cc1)Nc1cccc2c(=O)n(CCCN3CCCC3=O)ccc12` [Compound 1537]: the inhibition fell in the range of 26 to 50%.
As to `COc1ccc(C(=O)Nc2cccc3c(=O)n(CCN4CCOCC4)ccc23)c(C)c1` [Compound 1039], the inhibition at 0.1 µM ('*' class symbols, read-out: IL-1β % Inhib. (asterisk classes, 0.1 μM)) was in the range of 0 to 25%.
Turning to `Cc1cc(C(=O)Nc2cccc3c(=O)n(CCN(C)C)ccc23)ccc1F` [Compound 1175], the inhibition at 0.3 µM ('+' class symbols) is 0 to 25%.
Same read-out and setting: in the case of `COCCn1ccc2c(NC(=O)CCc3ccccc3Cl)cccc2c1=O` [Compound 1069] it was no less than 76%.
As for `Cc1cccc(C(=O)Nc2cccc3c(=O)n(C)ccc23)c1C` [Compound 1289], the inhibition at 0.3 µM (symbols + to ++++) fell in the range of 0 to 25%.
Consider `CN1CCC(Cn2ccc3c(NC(=O)c4ccc5ccccc5c4)cccc3c2=O)CC1` [Compound 1471], for which the inhibition is 0 to 25%.
Turning to `O=C(Nc1cccc2c(=O)n(Cc3ccc(OC(F)(F)F)cc3)ccc12)c1ccc2c(c1)OCCCO2` [Compound 1596], the inhibition was in the range of 0 to 25%.
Regarding `Cc1cccc(C(=O)Nc2cccc3c(=O)n(Cc4ccc(OC(F)(F)F)cc4)ccc23)c1Cl` [Compound 1607], the inhibition at 0.1 µM under setting [1] is 0 to 25%.
With `Cc1ccc(CCC(=O)Nc2cccc3c(=O)n(CCN(C)C)ccc23)c(C)c1` [Compound 1185], the inhibition at 0.3 µM ('+' class symbols) is 0 to 25%.
Regarding `O=C(Nc1cccc2c(=O)n(Cc3cccnc3)ccc12)[C@@]12C[C@@H]3C[C@@H](C[C@@H]1C3)C2` [Compound 1362], the inhibition at 0.3 µM (symbols + to ++++) lay within 0 to 25%.
Regarding `CC(C)Cc1ccc(C(=O)Nc2cccc3c(=O)n(CCN(C)C)ccc23)cc1` [Compound 1187], for the setting “'+' class symbols”, the inhibition at 0.3 µM was in the range of 0 to 25%.
Take `Cc1ccc(C)c(CC(=O)Nc2cccc3c(=O)n(CCCN4CCCC4=O)ccc23)c1` [Compound 1499]: the inhibition was in the range of 0 to 25%.
For the molecule `COc1ccc(CC(=O)Nc2cccc3c(=O)n(CC(C)(C)C)ccc23)cc1` [Compound 1260], where the note is “symbols + to ++++”, the inhibition at 0.3 µM fell in the range of 0 to 25%.
Same read-out and setting: in the case of `COc1ccc(CC(=O)Nc2cccc3c(=O)n(CCN4CCOCC4)ccc23)cc1OC` [Compound 1210] it was 0 to 25%.
As for `Cc1cccc(CC(=O)Nc2cccc3c(=O)n(CC4CCOCC4)ccc23)c1` [Compound 1104], the inhibition at 0.3 µM ('+' class symbols) fell in the range of 0 to 25%.
Consider `O=C(Nc1cccc2c(=O)n(Cc3ccc(OC(F)(F)F)cc3)ccc12)c1ccc2ccccc2c1` [Compound 1574], for which the inhibition lay within 0 to 25%.
For the molecule `Cc1cccc(C(=O)Nc2cccc3c(=O)n(CCN4CCOCC4)ccc23)c1Cl` [Compound 1239], where the note is “symbols + to ++++”, the inhibition at 0.3 µM was 0 to 25%.
Same read-out and setting: the value for `Cc1ccc(Cl)c(C(=O)Nc2cccc3c(=O)n(CC(C)(C)C)ccc23)c1` [Compound 1282] was 0 to 25%.
Regarding `CN(C)CCn1ccc2c(NC(=O)Cc3ccc(C(F)(F)F)cc3C(F)(F)F)cccc2c1=O` [Compound 1618], the IC50 was greater than 1000 nM. The inhibition at 0.3 µM ("+" class symbols) lay within 0 to 25%.
With `COc1ccc(CC(=O)Nc2cccc3c(=O)n(CC4CCN(C)CC4)ccc23)cc1OC` [Compound 1473], the inhibition lay in the range of 0 to 25%.
On to `COc1ccccc1CC(=O)Nc1cccc2c(=O)n(Cc3cccnc3)ccc12` [Compound 1351], for which the inhibition at 0.3 µM (symbols + to ++++) lay within 0 to 25%.
In turn, `O=C(Cc1ccc(Cl)c(C(F)(F)F)c1)Nc1cccc2c(=O)n(Cc3ccc(C(F)(F)F)nc3)ccc12` [Compound 1624, 2-(4-Chloro-3-trifluoromethyl-phenyl)-N-[1-oxo-2-(6-trifluoromethyl-pyridin-3-ylmethyl)-1,2-dihydro-isoquinolin-5-yl]-acetamide] came in with an IC50 of 365 nM. Where the note is “"+" class symbols”, the inhibition at 0.3 µM lay in the range of 26 to 50%.
For the molecule `Cc1cccc(C(=O)Nc2cccc3c(=O)n(CC4CCN(C)CC4)ccc23)c1` [Compound 1465], the inhibition lay in the range of 0 to 25%.
Still for that read-out and setting: the value for `COCCn1ccc2c(NC(=O)c3ccc(C(C)(C)C)cc3)cccc2c1=O` [Compound 1430] was 0 to 25%.
For the molecule `O=C(CCc1cccc(Cl)c1)Nc1cccc2c(=O)n(CC3CCOCC3)ccc12` [Compound 1135], the inhibition at 0.3 µM ('+' class symbols) lay in the range of 0 to 25%.
On the same count and under the same terms, in the case of `COc1cc(CC(=O)Nc2cccc3c(=O)n(CC4CCOCC4)ccc23)cc(OC)c1` [Compound 1111] it was 0 to 25%.
For the molecule `O=C(Nc1cccc2c(=O)n(CCCN3CCCC3=O)ccc12)c1ccccc1Cl` [Compound 1504], the inhibition was 51 to 75%.
As to `COCCn1ccc2c(NC(=O)c3ccccc3C)cccc2c1=O` [Compound 1310], the inhibition at 0.3 µM (symbols + to ++++) lay in the range of 0 to 25%.
In the case of `COc1c(C)cc(C(=O)Nc2cccc3c(=O)n(CCN(C)C)ccc23)cc1C` [Compound 1165], under “'+' class symbols”, the inhibition at 0.3 µM lay in the range of 0 to 25%.
As for `O=C(Nc1cccc2c(=O)n(CCN3CCOCC3)ccc12)c1cc2cc(Cl)ccc2o1` [Compound 1238], for the setting “symbols + to ++++”, the inhibition at 0.3 µM is 26 to 50%.
As to `Cc1cccc(CC(=O)Nc2cccc3c(=O)n(Cc4ccc(OC(F)(F)F)cc4)ccc23)c1` [Compound 1582], the inhibition is 0 to 25%.
With `CN(C)CCn1ccc2c(NC(=O)c3ccccc3Cl)cccc2c1=O` [Compound 1137], where the note is “'+' class symbols”, the inhibition at 0.3 µM is 0 to 25%.
On the same count and under the same terms, in the case of `CN(C)CCn1ccc2c(NC(=O)CC3CC4CC[C@H]3C4)cccc2c1=O` (some centres unmarked) [Compound 1167] it was 26 to 50%.
Turning to `COc1ccc(CC(=O)Nc2cccc3c(=O)n(CC4CCN(C)CC4)ccc23)c(OC)c1` [Compound 1484], the inhibition lay within 0 to 25%.
Consider `COc1ccc(C(=O)Nc2cccc3c(=O)n(CC4CCN(C)CC4)ccc23)c(C)c1` [Compound 1456], for which the inhibition lay within 0 to 25%.
Consider `CC(=O)OCCn1ccc2c(NC(=O)C3CCN(C(=O)OC(C)(C)C)CC3)cccc2c1=O` [Compound 1012], for which the IC50 amounted to 422 nM. Further, the inhibition at 0.3 µM ('+' class symbols) was in the range of 26 to 50%.
Regarding `COCCn1ccc2c(NC(=O)Cc3ccc(OC)c(C)c3)cccc2c1=O` [Compound 1337], where the note is “symbols + to ++++”, the inhibition at 0.3 µM lay within 0 to 25%.
For the molecule `O=C(Nc1cccc2c(=O)n(CC3CCOCC3)ccc12)c1ccc(-c2ccccc2)cc1` [Compound 1408], the inhibition was in the range of 0 to 25%.
Take `COc1cc(CC(=O)Nc2cccc3c(=O)n(Cc4cccnc4)ccc23)cc(OC)c1` [Compound 1360]: the inhibition at 0.3 µM (symbols + to ++++) was in the range of 26 to 50%.
